Test results from ChEMBL document CHEMBL1201862, “PubChem BioAssay data set” (2004).
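The compound was tested at five concentrations on cells cultured in 96-well plates, with a 48-hour exposure period. GI50 marks 50% less growth.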 The source made the active and inactive calls. Cut-off read from the data, not from the text of the source: active = GI50 up to about 1.1 µM and inactive = higher.

Assays:
Assay in all cases: NCI tumour cell line growth inhibition, 48 h
LOX IMVI = test system: LOX IMVI
MCF7 = test system: MCF7
SNB-75 = test system: SNB-75
SK-MEL-5 = test system: SK-MEL-5
SNB-19 = test system: SNB-19
T47D = test system: T47D
Malme-3M = test system: Malme-3M
OVCAR-8 = test system: OVCAR-8
UACC-257 = test system: UACC-257
UACC-62 = test system: UACC-62
SR = test system: SR
M14 = test system: M14
HOP-92 = test system: HOP-92
K562 = test system: K562
OVCAR-5 = test system: OVCAR-5
BT-549 = test system: BT-549
NCI-H460 = test system: NCI-H460
SW-620 = test system: SW-620
MDA-N = test system: MDA-N
LXFL 529 = test system: LXFL 529

Measured: GI50

O=C(O)CCc1nc(-c2ccccc2-n2cccc2)no1
inactive: LOX IMVI > 100 µM | MCF7 49.3 µM | SNB-75 > 100 µM | SK-MEL-5 > 100 µM | SNB-19 > 100 µM | T47D > 100 µM | Malme-3M 52.6 µM | OVCAR-8 > 100 µM | UACC-257 > 100 µM | UACC-62 > 100 µM | SR 5.46 µM | M14 89.1 µM | HOP-92 > 100 µM | K562 > 100 µM | OVCAR-5 > 100 µM | BT-549 > 100 µM | NCI-H460 73.6 µM | SW-620 > 100 µM | MDA-N 31.4 µM

CC(C)=NNc1ncnc2[nH]cnc12
inactive: LOX IMVI 4.78 µM | MCF7 4.07 µM | SNB-75 18.2 µM | SK-MEL-5 14.5 µM | SNB-19 45.5 µM | T47D 11.2 µM | Malme-3M 49.7 µM | OVCAR-8 5.55 µM | UACC-257 10 µM | UACC-62 2.68 µM | SR 4.69 µM | M14 4.65 µM | HOP-92 16.9 µM | K562 > 19.6 µM | OVCAR-5 4.65 µM | BT-549 48.1 µM | NCI-H460 7.06 µM | SW-620 11.9 µM | MDA-N 8.79 µM

COc1cccc2c1C1(O)C2CCCC12OCCCO2 (stereo unspecified)
inactive: LOX IMVI > 100 µM | SNB-75 > 100 µM | SK-MEL-5 > 100 µM | SNB-19 > 100 µM | Malme-3M > 100 µM | OVCAR-8 > 100 µM | UACC-257 > 100 µM | UACC-62 > 100 µM | M14 > 100 µM | LXFL 529 > 100 µM | K562 > 100 µM | OVCAR-5 > 100 µM | NCI-H460 > 100 µM | SW-620 > 100 µM

Cc1nc(-n2nc(-c3ccccc3)cc2-c2ccccc2)sc1C(/C=C/c1ccc([N+](=O)[O-])cc1)=N/NC(N)=S
inactive: LOX IMVI > 10 µM | SNB-75 20.8 µM | SK-MEL-5 28.8 µM | SNB-19 > 100 µM | Malme-3M > 100 µM | OVCAR-8 39.8 µM | UACC-257 78.3 µM | UACC-62 54.8 µM | M14 43 µM | HOP-92 25.1 µM | LXFL 529 24.1 µM | K562 21.6 µM | OVCAR-5 83.6 µM | NCI-H460 60.3 µM | SW-620 > 10 µM

Nc1ccccc1/C(O)=C1/CCOC1=O
inactive: SNB-75 > 100 µM | SNB-19 > 100 µM | Malme-3M > 100 µM | OVCAR-8 > 100 µM | UACC-257 > 100 µM | UACC-62 > 100 µM | SR > 100 µM | M14 > 100 µM | HOP-92 > 100 µM | LXFL 529 > 100 µM | K562 > 100 µM | OVCAR-5 > 100 µM | NCI-H460 > 100 µM | SW-620 > 100 µM

COC(=O)C1Cc2c(n(C)c3ccccc23)C(CCC(=O)O)N1Cc1ccccc1 (stereo unspecified)
inactive: LOX IMVI 37.8 µM | SNB-75 32.5 µM | SK-MEL-5 27.3 µM | SNB-19 33.2 µM | Malme-3M > 100 µM | OVCAR-8 39.4 µM | UACC-257 43.2 µM | UACC-62 26.6 µM | M14 25.5 µM | HOP-92 23.6 µM | LXFL 529 37 µM | K562 37 µM | OVCAR-5 79.3 µM | NCI-H460 23.6 µM | SW-620 40.4 µM

COc1ccc(C(O)C(c2ccc(OCc3ccccc3)cc2)c2ccc(OCc3ccccc3)cc2)cc1 (stereo unspecified)
inactive: SNB-75 > 100 µM | SK-MEL-5 > 100 µM | SNB-19 > 100 µM | Malme-3M > 100 µM | OVCAR-8 > 100 µM | UACC-62 > 100 µM | SR > 100 µM | M14 > 100 µM | HOP-92 > 100 µM | LXFL 529 > 100 µM | K562 > 100 µM | OVCAR-5 > 100 µM | NCI-H460 > 100 µM | SW-620 > 100 µM

O=C(CCCC(=O)Nc1ccc(Cl)cc1Cl)CC(=O)c1ccc2ccccc2c1
inactive: LOX IMVI > 100 µM | SK-MEL-5 > 100 µM | SNB-19 > 100 µM | Malme-3M > 100 µM | OVCAR-8 > 100 µM | UACC-257 > 100 µM | UACC-62 > 100 µM | M14 > 100 µM | HOP-92 96.6 µM | LXFL 529 > 100 µM | K562 > 100 µM | OVCAR-5 > 100 µM | NCI-H460 > 100 µM | SW-620 > 100 µM

Oc1ncnc2c1nnn2CCCn1nnc2c(O)ncnc21
inactive: LOX IMVI > 100 µM | SK-MEL-5 > 100 µM | SNB-19 > 100 µM | OVCAR-8 > 100 µM | UACC-257 > 100 µM | UACC-62 > 100 µM | SR > 100 µM | M14 > 100 µM | HOP-92 > 100 µM | LXFL 529 > 100 µM | K562 > 100 µM | OVCAR-5 > 100 µM | NCI-H460 > 100 µM | SW-620 > 100 µM

O=C(CCCCCCCCCCc1ccccc1)C1=C(O)CCCC1=O
inactive: LOX IMVI 26.2 µM | SNB-75 32.6 µM | SK-MEL-5 18.1 µM | SNB-19 46.2 µM | OVCAR-8 24.4 µM | UACC-257 34 µM | UACC-62 25.5 µM | SR 23.8 µM | M14 41.2 µM | HOP-92 11.3 µM | LXFL 529 32.2 µM | K562 19.8 µM | OVCAR-5 33.3 µM | NCI-H460 18.9 µM | SW-620 37.8 µM

CN(/N=C\c1ccnc2ccccc12)c1ccc([N+](=O)[O-])cc1
inactive: LOX IMVI 8.2 µM | SNB-75 > 100 µM | SK-MEL-5 53.8 µM | SNB-19 > 100 µM | Malme-3M > 100 µM | OVCAR-8 95.7 µM | UACC-257 > 100 µM | UACC-62 84.7 µM | M14 97.1 µM | HOP-92 > 100 µM | LXFL 529 54.8 µM | K562 25.3 µM | OVCAR-5 > 100 µM | NCI-H460 5.73 µM | SW-620 65 µM

O=C1C=CC(=O)[C@H]2C3C=CC(C4C3C3(Cl)C(Cl)=C(Cl)[C@]4(Cl)C3(Cl)Cl)[C@@H]12 (stereo partly specified)
inactive: LOX IMVI 3.32 µM | MCF7 3.91 µM | SNB-75 12.2 µM | SK-MEL-5 3.55 µM | SNB-19 5.62 µM | T47D 5.48 µM | Malme-3M 10.6 µM | OVCAR-8 8.47 µM | UACC-257 2.32 µM | UACC-62 8.83 µM | SR 1.66 µM | M14 4.3 µM | HOP-92 2.18 µM | K562 3.14 µM | OVCAR-5 7.46 µM | BT-549 5.96 µM | NCI-H460 4.02 µM | SW-620 9.57 µM | MDA-N 4.52 µM

[N-]=[N+]=Nc1ccccc1-[n+]1noc([O-])c1Br
inactive: SNB-75 > 100 µM | SK-MEL-5 > 100 µM | SNB-19 > 100 µM | Malme-3M > 100 µM | OVCAR-8 > 100 µM | UACC-257 > 100 µM | UACC-62 > 100 µM | SR > 100 µM | M14 > 100 µM | HOP-92 > 100 µM | LXFL 529 > 100 µM | K562 > 100 µM | NCI-H460 > 100 µM | SW-620 > 100 µM
